The values below come from PubChem BioAssay AID1259411 (Chemical Carcinogenesis Research Information System (CCRIS), 2018).

This data set concerns rodent carcinogenicity bioassays, tumor incidence. The data set is described as follows: CCRIS carcinogenicity studies. Summed up:
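NCI-built, expert-reviewed records of carcinogenicity and related test outcomes (mutagenicity, tumor promotion/inhibition) compiled from published and report sources, historical span 1985-2011, not updated.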

Activity calls are given as the source filed them. No rule for the calls is given here.

Turning to `Oc1c(Cl)c(Cl)c(Cl)c(Cl)c1Cl`, the carcinogen call was “active; positive” (Species: MOUSE, Strain/Sex: B6C3F1/FEMALE, Route: ORAL, Dose: 0, 100, 200, 600 PPM DOWCIDE EC-7 IN FEED FOR 103 WK (STUDY DURATION: 103 WK), Dose: 0, 100, 200, 600 PPM DOWCIDE EC-7 IN FEED FOR 103 WK (STUDY DURATION: 103 WK), Tumor Site: Type of Lesion: ADRENAL GLAND/MEDULLA: PHEOCHROMOCYTOMA: ADRENAL GLAND/MEDULLA: PHEOCHROMOCYTOMA OR MALIGNANT PHEOCHROMOCYTOMA, CIRCULAT); “active; positive” (Species: MOUSE, Strain/Sex: B6C3F1/FEMALE, Route: ORAL, Dose: 0, 100, 200 PPM TECHNICAL GRADE PENTACHLOROPHENOL IN FEED FOR 103 WK (STUDY DURATION: 103 WK), Dose: 0, 100, 200 PPM TECHNICAL GRADE PENTACHLOROPHENOL IN FEED FOR 103 WK (STUDY DURATION: 103 WK), Tumor Site: Type of Lesion: LIVER: HEPATOCELLULAR ADENOMA OR CARCINOMA, CIRCULATORY SYSTEM: HEMANGIOSARCOMA); “active; positive” (Species: MOUSE, Strain/Sex: B6C3F1/MALE, Route: ORAL, Dose: 0, 100, 200, 600 PPM DOWCIDE EC-7 IN FEED FOR 103 WK (STUDY DURATION: 103 WK), Dose: 0, 100, 200, 600 PPM DOWCIDE EC-7 IN FEED FOR 103 WK (STUDY DURATION: 103 WK), Tumor Site: Type of Lesion: ADRENAL GLAND/MEDULLA: PHEOCHROMOCYTOMA, ADRENAL GLAND/MEDULLA: PHEOCHROMOCYTOMA OR MALIGNANT PHEOCHROMOCYTOMA, LIVER: H, Tumor Site: Type of Lesion: ADRENAL GLAND/MEDULLA: PHEOCHROMOCYTOMA, ADRENAL GLAND/MEDULLA: PHEOCHROMOCYTOMA OR MALIGNANT PHEOCHROMOCYTOMA, LIVER: H); “active; positive” (Species: MOUSE, Strain/Sex: B6C3F1/MALE, Route: ORAL, Dose: 0, 100, 200 PPM TECHNICAL GRADE PENTACHLOROPHENOL IN FEED FOR 103 WK (STUDY DURATION: 103 WK), Dose: 0, 100, 200 PPM TECHNICAL GRADE PENTACHLOROPHENOL IN FEED FOR 103 WK (STUDY DURATION: 103 WK), Tumor Site: Type of Lesion: ADRENAL GLAND/MEDULLA: PHEOCHROMOCYTOMA, LIVER: HEPATOCELLULAR ADENOMA, LIVER: HEPATOCELLULAR ADENOMA OR CARCINOMA, Tumor Site: Type of Lesion: ADRENAL GLAND/MEDULLA: PHEOCHROMOCYTOMA, LIVER: HEPATOCELLULAR ADENOMA, LIVER: HEPATOCELLULAR ADENOMA OR CARCINOMA); “inactive; negative” (Species: MOUSE, Strain/Sex: B6C3F1/MALE, Route: ORAL, Dose: 0, 1200 PPM IN DIET FOR 13 WK (STUDY DURATION: 42 WK)); “inactive; negative” (Species: RAT, Strain/Sex: F344/N/FEMALE, Route: ORAL, Dose: 0, 200, 400, 600 PPM IN DIET FOR 105 WK (STUDY DURATION: 105 WK), Dose: 0, 200, 400, 600 PPM IN DIET FOR 105 WK (STUDY DURATION: 105 WK)). For the same molecule, the carcinogen call (Species: RAT, Strain/Sex: F344/N/FEMALE, Route: ORAL, Dose: 0, 1000 PPM IN DIET FOR 52 WK (STUDY DURATION: 105 WK)) is “inactive; negative”; the carcinogen call (Species: RAT, Strain/Sex: F344/N/MALE, Route: ORAL, Dose: 0, 200, 400, 600 PPM IN DIET FOR 105 WK (STUDY DURATION: 105 WK), Dose: 0, 200, 400, 600 PPM IN DIET FOR 105 WK (STUDY DURATION: 105 WK)) is “inactive; negative”; the carcinogen call (Species: RAT, Strain/Sex: F344/N/MALE, Route: ORAL, Dose: 0, 1000 PPM IN DIET FOR 52 WK (STUDY DURATION: 105 WK), Tumor Site: Type of Lesion: SKIN: KERATOACANTHOMA) is “active; positive”.

`Nc1ncn[nH]1`: the carcinogen call (Species: HAMSTER, Strain/Sex: SYRIAN/FEMALE, Route: ORAL, Dose: 0, 1, 10, 100 PPM IN DIET (TOTAL DOSE: 0; 0.07; 0.6; 6.6 G/KG) FOR 822-856 D (STUDY DURATION: LIFETIME), Dose: 0, 1, 10, 100 PPM IN DIET (TOTAL DOSE: 0; 0.07; 0.6; 6.6 G/KG) FOR 822-856 D (STUDY DURATION: LIFETIME)) was “inactive; negative”; the carcinogen call (Species: HAMSTER, Strain/Sex: SYRIAN/MALE, Route: ORAL, Dose: 0, 1, 10, 100 PPM IN DIET (TOTAL DOSE: 0; 0.08; 0.8; 7.2 G/KG) FOR 885-979 D (STUDY DURATION: LIFETIME), Dose: 0, 1, 10, 100 PPM IN DIET (TOTAL DOSE: 0; 0.08; 0.8; 7.2 G/KG) FOR 885-979 D (STUDY DURATION: LIFETIME)) is “inactive; negative”; the carcinogen call (Species: MOUSE, Route: ORAL, Tumor Site: Type of Lesion: LIVER, THYROID GLAND) is “active; positive”; the carcinogen call (Species: MOUSE, Strain/Sex: NMRI/FEMALE, Route: ORAL, Dose: 0, 1, 10, 100 PPM IN DIET (TOTAL DOSE: 0; 0.17; 1.7; 18.2 G/KG) FOR 970-1027 D (STUDY DURATION: LIFETIME), Dose: 0, 1, 10, 100 PPM IN DIET (TOTAL DOSE: 0; 0.17; 1.7; 18.2 G/KG) FOR 970-1027 D (STUDY DURATION: LIFETIME)) is “inactive; negative”; the carcinogen call (Species: MOUSE, Strain/Sex: NMRI/MALE, Route: ORAL, Dose: 0, 1, 10, 100 PPM IN DIET (TOTAL DOSE: 0; 0.13; 1.3; 13.1 G/KG) FOR 1022-1028 D (STUDY DURATION: LIFETIME), Dose: 0, 1, 10, 100 PPM IN DIET (TOTAL DOSE: 0; 0.13; 1.3; 13.1 G/KG) FOR 1022-1028 D (STUDY DURATION: LIFETIME)) was “inactive; negative”; the carcinogen call (Species: RAT, Route: ORAL, Tumor Site: Type of Lesion: LIVER, THYROID GLAND) was “active; positive”. For the same molecule, the carcinogen call was “active; positive” (Species: RAT, Route: SUBCUTANEOUS, Tumor Site: Type of Lesion: INJECTION SITE, LIVER, THYROID GLAND, Tumor Site: Type of Lesion: INJECTION SITE, LIVER, THYROID GLAND); “active; positive” (Species: RAT, Strain/Sex: WISTAR/FEMALE, Route: ORAL, Dose: 0, 1, 10, 100 PPM IN DIET (TOTAL DOSE: 0; 0.08; 0.8; 7.9 G/KG) FOR 1140-1143 D (STUDY DURATION: LIFETIME), Dose: 0, 1, 10, 100 PPM IN DIET (TOTAL DOSE: 0; 0.08; 0.8; 7.9 G/KG) FOR 1140-1143 D (STUDY DURATION: LIFETIME), Tumor Site: Type of Lesion: THYROID GLAND: MALIGNANT TUMOR); “active; positive” (Species: RAT, Strain/Sex: WISTAR/MALE, Route: ORAL, Dose: 0, 1, 10, 100 PPM IN DIET (TOTAL DOSE: 0; 0.06; 0.6; 5.8 G/KG) FOR 1137-1143 D (STUDY DURATION: LIFETIME), Dose: 0, 1, 10, 100 PPM IN DIET (TOTAL DOSE: 0; 0.06; 0.6; 5.8 G/KG) FOR 1137-1143 D (STUDY DURATION: LIFETIME), Tumor Site: Type of Lesion: THYROID GLAND: MALIGNANT TUMOR).

On to `CN(C)C(=O)Nc1ccc(Cl)c(Cl)c1`, for which the carcinogen call is, setting by setting: (Species: MOUSE, Strain/Sex: SWISS/FEMALE, Route: DERMAL, Dose: 0, 250 MG/KG IN 100 µL DMSO TO INTERSCAPULAR REGION 3/WK FOR 3 WK FOLLOWED 1 WK LATER BY 100 µL ACETONE 3/WK FOR DURATIO) “inactive; negative”; (Species: Mouse, Strain/Sex: Bor strain NMRI SPF HAN/Female (60/Group), Route: Oral, Dose: 0, 25, 250, 2500 ppm 98.7% diuron in diet for 24 mo, study duration 24 mo, Dose: 0, 25, 250, 2500 ppm 98.7% diuron in diet for 24 mo, study duration 24 mo, Tumor Site: Type of Lesion: Mammary gland: Adenocarcinoma (highest dose only)) “active; positive. (ca department of pesticide regulation reviewer evaluates as a possibl”; (Species: Mouse, Strain/Sex: Bor strain NMRI SPF HAN/Male (60/Group), Route: Oral, Dose: 0, 25, 250, 2500 ppm 98.7% diuron in diet for 24 mo, study duration 24 mo, Dose: 0, 25, 250, 2500 ppm 98.7% diuron in diet for 24 mo, study duration 24 mo) “inactive; negative”; (Species: Rat, Strain/Sex: Wistar/Female (50/Group), Route: Oral, Dose: 0, 25, 250, 2500 ppm 98.7% diuron in diet for 2 yr, study duration 2 yr, Dose: 0, 25, 250, 2500 ppm 98.7% diuron in diet for 2 yr, study duration 2 yr, Tumor Site: Type of Lesion: Urinary bladder: Transitional epithelial cell carcinoma (highest dose only)) “active; positive. (ca department of pesticide regulation reviewer evaluates as a possibl”; (Species: Rat, Strain/Sex: Wistar/Male (50/Group), Route: Oral, Dose: 0, 25, 250, 2500 ppm 98.7% diuron in diet for 2 yr, study duration 2 yr, Dose: 0, 25, 250, 2500 ppm 98.7% diuron in diet for 2 yr, study duration 2 yr, Tumor Site: Type of Lesion: Urinary bladder: Transitional epithelial cell carcinoma (highest dose only). Kidney: Epithelial cell tumors in renal pel) “active; positive. (ca department of pesticide regulation reviewer evaluates as a possibl”.
